Reference: patent publication US12440527B2, “Organic sol-gel nano-composition from panax notoginseng, rutin, ginkgo biloba effective in enhancing cerebral and cardiovascular protection and method of producing thereof” (priority 2020, dated 2025)

Columns and labels:
Assay type in all cases: in vivo
[1] = test system: white mice injected with nitroglycerin (NTG), chronic migraine model; assay: Vasomotor pain relieving effect on chronic migraine model (nitroglycerin injection, dolorimeter); settings: oral 40 mg/kg propranolol, NTG 10 mg/kg
Experimental: In the test, the white mice were randomly divided into 5 batches, each batch having 10 animals: Batch 1 (biological control) was subjected to oral administration of 0.2 ml/10 g water; batch 2 (model) injected 10 mg/kg with nitroglycerin (NTG) was subjected to oral administration of 0.2 mL/10 g water; batch 3 (positive control) injected with 10 mg/kg nitroglycerin was subjected to oral administration of 40 mg/kg propranolol; batch 4 injected with 10 mg/kg nitroglycerin was subjected to oral administration of the composition at dose of 0.96 pill/kg/day (equivalent to the clinical dose); batch 5 injected with 10 mg/kg nitroglycerin was subjected to oral administration of the composition at dose of 2.88 pill/kg/day (3 times as much as the clinical dose).

white mice = assay: Sedative effect on the advanced plus model (close/open branch)
Experimental: (§1) In the test, the white mice were randomly divided into 4 batches, each batch having 10 animals: Batch 1 (biological control) was subjected to oral administration of 20 mL/kg/day distilled water; batch 2 (positive control) was subjected to oral administration of 2.4 mg/kg/day diazepam; batch 3 was subjected to oral administration of the composition at dose of 0.96 pill/kg/day (equivalent to the clinical dose); batch 4 was subjected to oral administration of the composition at dose of 2.88 pill/kg/day (3 times as much as the clinical dose).

[2] = test system: white mice injected with nikethamide; assay: Anticonvulsant effect after nikethamide injection
Experimental: as §1, with “dose). After the mice were injected with nikethamide, the time of convulsion onset and the death time of the mice were taken.” for “dose).”

[3] = After 7 days of oral administration of the drug, Diazepam at 2.4 mg/kg/day
[4] = Before oral administration of the drug, Diazepam at 2.4 mg/kg/day batch

Question: For `CC(C)NCC(O)COc1cccc2ccccc12` (centres unmarked) [Propranolol, propranolol], which “Pain-inducing force in the dolorimeter (baseline pain threshold)” value (from here on “Pain-inducing force in the dolorimeter”) ([1]; Day 3) is on record?
Answer: The value was 7.6 ± 1.5 g.

Question: And the “Pain-inducing force on the dolorimeter (pain threshold after treatment)” value (“Pain-inducing force on the dolorimeter” for short) ([1]; Day 3)?
Answer: The value was 6.8 ± 1.2 g.

Question: And the “Pain-inducing force in the dolorimeter” value ([1]; Day 5)?
Answer: The value was 6.5 ± 1.1 g.

Question: What about the “Pain-inducing force on the dolorimeter” value ([1]; Day 5) of the same compound?
Answer: The value was 7.0 ± 1.0 g.

Question: And the “Pain-inducing force in the dolorimeter” value ([1]; Day 7)?
Answer: Its value is 6.4 ± 1.0 g.

Question: And the “Pain-inducing force on the dolorimeter” value ([1]; Day 7)?
Answer: The value was 6.7 ± 0.5 g.

Question: What about the “Pain-inducing force in the dolorimeter” value ([1]; Day 9) of the same compound?
Answer: The value was 7.1 ± 0.9 g.

Question: What about the “Pain-inducing force on the dolorimeter” value ([1]; Day 9) of the same compound?
Answer: Its value is 6.7 ± 0.5 g.

Question: What about the “Pain-inducing force in the dolorimeter” value ([1]; Day 11) of the same compound?
Answer: The value was 7.1 ± 1.0 g.

Question: And the “Pain-inducing force on the dolorimeter” value ([1]; Day 11)?
Answer: Its value is 7.8 ± 0.7 g.

Question: Which results are given for `CN1C(=O)CN=C(c2ccccc2)c2cc(Cl)ccc21` [Diazepam, diazepam]?
Answer: Avoidance rate at the open branch (white mice; [3]): 46.37 ± 9.21; Number of times of mouse introduction into the close branch (white mice; [3]): 6.40; Number of times of mouse introduction into the open branch (white mice; [3]): 6.90; Time of mouse introduction into the close branch (white mice; [3]): 121.20 s; Time of mouse introduction into the open branch (white mice; [3]): 150.10 s; Avoidance rate at the open branch (white mice; [4]): 69.21 ± 8.88; Number of times of mouse introduction into the close branch (white mice; [4]): 11.50; Number of times of mouse introduction into the open branch (white mice; [4]): 4.30; Time of mouse introduction into the close branch (white mice; [4]): 173.70 s; Time of mouse introduction into the open branch (white mice; [4]): 90.40 s; Effect on time of convulsion onset and death time vs model batch ([2]; 2.4 mg/kg/day diazepam, after nikethamide injection): took effects in prolonging the time of convulsion onset and the death time; Death time of the mice after nikethamide injection ([2]; Diazepam at 2.4 mg/kg/day oral): 14.91 ± 3.67 min; Time of convulsion onset ([2]; Diazepam at 2.4 mg/kg/day oral, after nikethamide injection): 2.08 ± 0.55 min
